The numbers were not newly measured in patent US7705028B2, “Farnesoid X receptor agonists” (GlaxoSmithKline LLC, priority 2005, dated 2010), which cites them from elsewhere.

Data set [1] has as its system hepatic stellate cells (HSC). As to conditions: cultured HSCs; cited from earlier work.
Data set [2] relates to rodent models of hepatic fibrosis. As to conditions: multiple rodent models; cited from earlier work.

In the case of `CC[C@H]1[C@@H](O)[C@@H]2[C@H](CC[C@]3(C)[C@@H]([C@H](C)CCC(=O)O)CC[C@@H]23)[C@@]2(C)CC[C@@H](O)C[C@@H]12` [Example 6EtCDCA, 6-ethyl-chenodeoxycholic acid], the “expression of fibrotic markers such as α-smooth muscle actin and α1(I)collagen” value in data set [1] is reported as “decreased expression of fibrotic markers”. Further, the hepatic fibrosis entry in data set [2] is “prevent development and promote resolution of hepatic fibrosis”.
